Results published in PMC6522941, “Design, synthesis, and anticancer evaluation of novel quinoline derivatives of ursolic acid with hydrazide, oxadiazole, and thiadiazole moieties as potent MEK inhibitors” (Journal of Enzyme Inhibition and Medicinal Chemistry, 2019).
pIC50: −log10 of the molar value.

Target: T1, MEK1 (Homo sapiens, UniProt Q02750)
T1 construct: purchased Carna Biosciences, Kobe, Japan
Experiment: In vitro MEK1 kinase assay (ADP-Glo)
Type: biochemical
Details: recombinant GST-MEK1, GST-ERK2 (inactive) substrate, 10 μM ATP
Procedure: An in vitro kinase assay of MEK1 was performed using ADP-Glo kinase assay (Promega, Madison, WI, USA) according to the manufacturer’s protocol. […] Reactions were stopped by adding 5 μL of ADP-Glo reagent to each well. After incubating at 22 °C for 40 min, 10 μL of the kinase detection reagent was added and the plates were incubated for another 30 min at 22 °C in the dark. The reaction mixture was analysed by EnSpire (PerkinElmer, Waltham, MA, USA).
The Raf/MEK/ERK pathway is the downstream of Ras activation, and the abnormal expression or phosphorylation of the associated proteins is essential for cancer cell proliferation. In this pathway, MEK kinase is an important anticancer target because of its key roles in regulating the cancer cell apoptosis and oncogenic transformation[51]^,[52]. Among MEK proteins, MEK1 and MEK2 are known as substrate-specific kinases which phosphorylate their downstream kinase ERK1/2.

T1 sequence (Q02750 whole entry): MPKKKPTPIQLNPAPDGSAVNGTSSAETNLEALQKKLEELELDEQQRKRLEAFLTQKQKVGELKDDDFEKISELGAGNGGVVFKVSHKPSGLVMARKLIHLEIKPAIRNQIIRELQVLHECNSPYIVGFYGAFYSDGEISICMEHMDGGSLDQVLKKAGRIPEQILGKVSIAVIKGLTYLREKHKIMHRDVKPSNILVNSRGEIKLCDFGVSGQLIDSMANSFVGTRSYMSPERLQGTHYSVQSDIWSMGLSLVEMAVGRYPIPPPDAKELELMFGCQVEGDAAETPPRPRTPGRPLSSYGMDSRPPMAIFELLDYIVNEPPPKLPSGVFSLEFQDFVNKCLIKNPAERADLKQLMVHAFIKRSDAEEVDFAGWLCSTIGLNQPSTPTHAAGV

- pIC50: 7.19
Structure (SMILES): CC(=O)NNC(=O)C12CCC(C)C(C)C1C1=CCC3C4(C)Cc5cc6cc(Cl)ccc6nc5C(C)(C)C4CCC3(C)C1(C)CC2 (stereo not shown) [Compound 4d, N-[5′-chloro-ursa-12-en-(2,3)-quinoline-28-oyl]-acetohydrazide]
